Test results taken from patent US6864086B2, “Nitric oxide-scavenging system for culturing oocytes, embryos, or other cells” (Board of Supervisors of Louisiana State University and …, priority 1998, dated 2005).

System: bovine embryos
Experiment: Example 9: L-NAME (1 or 1000 nM) added to mBECM containing serum and Hb, pre-hatching development
Format: cell-based
Design: key to Least square mean of embryos developed to 16-cell / Least square mean of embryos developed to Blastocyst / Least square mean of embryos developed to 2-cell / Least square mean of embryos developed to 8-cell / Least square mean of embryos developed to Morula: fraction developed; each embryo scored 1 = developed, 0 = not developed
Settings: for Number of embryos developed to 2-cell / Number of embryos developed to 8-cell / Number of embryos developed to 16-cell / Number of embryos developed to Morula / Number of embryos developed to Blastocyst: 96 embryos; for Number of embryos developed to 2-cell / Least square mean of embryos developed to 2-cell: 48 h; for Number of embryos developed to 8-cell / Least square mean of embryos developed to 8-cell: 60 h; for Number of embryos developed to 16-cell / Least square mean of embryos developed to 16-cell: 120 h; for Number of embryos developed to Morula / Least square mean of embryos developed to Morula: 144 h; for Number of embryos developed to Blastocyst / Least square mean of embryos developed to Blastocyst: 192 h
Method: The basic medium used for maturation of oocytes was tissue culture medium (TCM)-199 with Earle's salts, buffered with 25 mM HEPES (Gibco BRL, Grand Island, N.Y.) and supplemented with 10% (v/v) heat-inactivated fetal bovine serum (FBS; Hyclone Laboratories, Logan, Utah), 1 μg/ml estradiol-17β (NOBL Laboratories, Sioux Center, Iowa), 3 μg/ml bovine FSH (NOBL Laboratories), 6 μg/ml bovine LH (NOBL Laboratories), and 25 μg/ml gentamycin (Sigma Chemical Co., St. Louis, Mo.). The basic medium used for treatment of spermatozoa and fertilization of oocytes was a modified Tyrode's medium (J. Parrish et al., Capacitation of bovine sperm by heparin. Biol. Reprod. 38:1171-1180 (1988)), supplemented with 0.25 mM sodium pyruvate (Gibco BRL), 6 mg/ml fatty acid (FA)-free BSA (No. A-6003, Sigma), 15 μg/ml calcium heparin from porcine intestinal mucosa (183 USP/mg; H-8398, Sigma), and 25 μg/ml gentamycin. Modified bovine embryo culture medium (mBECM) containing 10 μM β-mercaptoethanol was used for culture of embryos, as described in J. Lim et al., “Roles of growth factors in the development of bovine embryos fertilized in vitro and cultured singly in a defined medium,” Reprod. Fertil. Dev., 8:1199-1205 (1996). mBECM supplemented with 10% (v/v) FBS was used for co-culturing inseminated oocytes with CGC. Osmolarity of the medium was maintained within the range of 265-290 mOsm.
All cumulus-oocyte complexes (COC) were collected in Madison, Wis. (BOMED, Inc.) and were shipped in 2 ml of maturation medium in a battery powered incubator via overnight express mail service. Oocytes matured during transit and arrived within 24 h after exposure to maturation medium, pre-equilibrated at 39° C. in 5% CO2 in air. At 22 to 24 h after exposure to the medium, the COCs were inseminated in vitro as described in J. Lim et al., “Intracytoplasmic glutathione concentration and the role of β-mercaptoethanol in preimplantation development of bovine embryos,” Theriogenology, 46:429-439 (1996). At 18 h post-insemination, COCs were cultured in groups (28-40 embryos) in a 4-well multidish (Nunc, Roskilde, Denmark) containing 0.8-ml of mBECM. Embryos were dislodged from CGC at 36 to 48 h post-insemination.
In Example 9, IVF embryos were cultured in MBECM supplemented as follows: 1) no addition (control), 2) Hb (1 μg/ml), 3) Hb plus L-NAME (1 nM), and 4) Hb plus L-NAME (1000 nM). Embryonic development was evaluated up to 192 h post-insemination. A total of 384 oocytes were inseminated, and were randomly and equally allotted to 4 replicates.
Embryos developed to the 2-cell, 8-cell, 16-cell, morula, and blastocyst stages at the pertinent observation times were individually scored ‘1’ (developed). Embryos that had not developed to these stages at the same times were scored ‘0’ (non-developed). Sums of the scores at each stage of development were evaluated by analysis of variance using a general linear model (PROC-GLM) in the SAS statistical programming package (1991). In Example 8, the combined effects of Hb addition and month of oocyte collection were first examined in a 2×7 factorial arrangement. Overall differences in embryonic development in Hb-free and Hb-containing culture systems were further evaluated. […] Differences were regarded as statistically significant where P values were less than 0.05.

COC(=O)[C@@H](N)CCCN=C(N)N[N+](=O)[O-].Cl [L-NAME, N^G-Lω-nitro-L-arginine methyl ester hydrochloride]
Number of embryos developed to 2-cell (L-NAME 1 nM with Hb 1 μg/ml): 78 | Number of embryos developed to 8-cell (L-NAME 1 nM with Hb 1 μg/ml): 60 | Number of embryos developed to 16-cell (L-NAME 1 nM with Hb 1 μg/ml): 46 | Number of embryos developed to Morula (L-NAME 1 nM with Hb 1 μg/ml): 38 | Number of embryos developed to Blastocyst (L-NAME 1 nM with Hb 1 μg/ml): 26 | Least square mean of embryos developed to 2-cell (L-NAME 1 nM with Hb 1 μg/ml): 0.813 | Least square mean of embryos developed to 8-cell (L-NAME 1 nM with Hb 1 μg/ml): 0.625 | Least square mean of embryos developed to 16-cell (L-NAME 1 nM with Hb 1 μg/ml): 0.479 | Least square mean of embryos developed to Morula (L-NAME 1 nM with Hb 1 μg/ml): 0.396 | Least square mean of embryos developed to Blastocyst (L-NAME 1 nM with Hb 1 μg/ml): 0.271 | Number of embryos developed to 2-cell (L-NAME 1000 nM with Hb 1 μg/ml): 70 | Number of embryos developed to 8-cell (L-NAME 1000 nM with Hb 1 μg/ml): 50 | Number of embryos developed to 16-cell (L-NAME 1000 nM with Hb 1 μg/ml): 40 | Number of embryos developed to Morula (L-NAME 1000 nM with Hb 1 μg/ml): 28 | Number of embryos developed to Blastocyst (L-NAME 1000 nM with Hb 1 μg/ml): 19 | Least square mean of embryos developed to 2-cell (L-NAME 1000 nM with Hb 1 μg/ml): 0.729 | Least square mean of embryos developed to 8-cell (L-NAME 1000 nM with Hb 1 μg/ml): 0.521 | Least square mean of embryos developed to 16-cell (L-NAME 1000 nM with Hb 1 μg/ml): 0.416 | Least square mean of embryos developed to Morula (L-NAME 1000 nM with Hb 1 μg/ml): 0.292 | Least square mean of embryos developed to Blastocyst (L-NAME 1000 nM with Hb 1 μg/ml): 0.198 | further stimulation of embryonic development to the blastocyst stage (L-NAME added to culture medium containing Hb, P>0.07): did not further stimulate
